Patent US11938139B2, “Pharmaceutical compositions and methods for anxiety, depression and other psychiatric disorders” (LA PharmaTech Inc., priority 2019, dated 2024)

Columns and labels:
Assay type in all cases: in vivo, human
[1] = test system: patient with major depressive disorder and agitation; assay: Clinical case, Example 3: patient; details: person; disorder for about 2 years; fluoxetine alone, alprazolam 2.0 mg/daily alone
Description: The inventors believe the hypothesis as explained in example 1 above is applicable here as well. In this case, the composition of two mechanisms of action for two different classes of diseases provided a new solution for treating […] major depressive disorder and agitation which could not be treated with other options, such traditional SSRIs, NSRIs, benzodiazepines, and the like alone.

[2] = test system: patient with generalized anxiety disorder, agitation and insomnia; assay: Clinical case, Example 2: patient; details: person; disorder for 8 months; alprazolam 2.0 mg/daily alone
Description: The inventors believe the hypothesis as explained in example 1 above is applicable here as well. In this case, the composition of two mechanisms of action for two different classes of diseases provided a new solution for treating […] generalized anxiety diseases and agitation along with insomnia which could not be treated with other options, such traditional SSRIs, NSRIs, benzodiazepines, and the like alone.

[3] = test system: patient with generalized anxiety disorder, panic disorder, and agitation; assay: Clinical case, Example 1: patient; details: person; fluoxetine alone 4 months, sertraline alone 6 months, alprazolam 2.0 mg/daily alone 4 months
Description: A patient had generalized anxiety disorder, panic disorder, and agitation. […] Because azelastine is approved for the treatment of allergic rhinitis and asthma and has never been used to treat patients with depression or anxiety, this dramatic clinical outcome from this composition is unexpected. […] This way of activating the GABA system may interact more effectively with other neurotransmitter systems, including noradrenergic, serotonergic, cholinergic, and opioidergic systems. […] This composition of two mechanisms of action for two different classes of diseases provided a new solution for treating psychiatric diseases which are incurable by other options, such traditional SSRIs, NSRIs, benzodiazepines, and the like alone.

Compound	effectiveness of earlier treatment alone [1]	effectiveness of earlier treatment alone [2]	clinical improvement with single-agent treatment [3]
Cc1nnc2n1-c1ccc(Cl)cc1C(c1ccccc1)=NC2 [alprazolam, 8-Chloro-1-methyl-6-phenyl-4H-s-triazolo(4,3-a)(1,4)benzodiazepine]	no treatment, including fluoxetine alone from SSRIs or alprazolam (2.0 mg/daily) alone from benzodiazepines, had been effective	no treatment had been effective	no significant clinical improvement
CNCCC(Oc1ccc(C(F)(F)F)cc1)c1ccccc1 (stereo not drawn) [fluoxetine]	no treatment, including fluoxetine alone from SSRIs or alprazolam (2.0 mg/daily) alone from benzodiazepines, had been effective	–	no significant clinical improvement
CN[C@H]1CC[C@@H](c2ccc(Cl)c(Cl)c2)c2ccccc21 [sertraline]	–	–	no significant clinical improvement
